As a reminder, the Kd is the concentration at which binding is half-saturated.

Kd data for one compound are collected here from PMC10294657, “The dCache Domain of the Chemoreceptor Tlp1 in Campylobacter jejuni Binds and Triggers Chemotaxis toward Formate” (mBio, 2023).

In this assay the target is T1, Tlp1 (Cj1506c), Tlp1-LBD (Campylobacter jejuni, UniProt Q0P8B2).
T1 construct: Tlp1-LBD (residues 31 to 326), dCache domain
Nature of the assay: ITC with purified Tlp1-LBD, pH […]°C. Format: binding.

The structures appear in SMILES notation.

T1 sequence (Q0P8B2 entry or part of it): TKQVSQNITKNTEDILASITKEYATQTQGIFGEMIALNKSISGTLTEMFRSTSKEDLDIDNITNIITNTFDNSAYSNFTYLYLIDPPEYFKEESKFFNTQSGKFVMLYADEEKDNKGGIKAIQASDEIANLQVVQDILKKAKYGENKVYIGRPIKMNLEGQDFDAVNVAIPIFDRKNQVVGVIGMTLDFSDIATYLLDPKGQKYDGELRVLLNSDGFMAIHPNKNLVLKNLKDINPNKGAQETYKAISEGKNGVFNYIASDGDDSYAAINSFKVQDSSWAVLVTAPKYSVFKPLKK

Regarding `O=CO` [formate], the Kd came out at 245 ± 74 µM.
